Measured values taken from US20240116985A1, “STAPLED PEPTIDES AND METHODS THEREOF” (priority 2020, published 2024).
Values after ≈ are worked out from the molar mass of the structure shown. Values joined by “and” are separate entries in the source; they are usually repeats but may differ in a detail not shown here. Identical values can stand only once. Like-named read-outs stand apart in the source and are kept apart here.

Tests used:
[1] = CHI Log D procedure; format: physicochemical; conditions: pH 7.4, CHI Log D
[2] = biological target: T1, beta-catenin/TCF4 engagement (Homo sapiens, UniProt P35222); test: Nano-BRET target engagement assay (B-cat-Halo & TCF4-Luc in HEK293 cells); format: cell-based
T1 construct: expressed in transfected cells; host or cells: HEK293
T1 sequence (P35222 1-781): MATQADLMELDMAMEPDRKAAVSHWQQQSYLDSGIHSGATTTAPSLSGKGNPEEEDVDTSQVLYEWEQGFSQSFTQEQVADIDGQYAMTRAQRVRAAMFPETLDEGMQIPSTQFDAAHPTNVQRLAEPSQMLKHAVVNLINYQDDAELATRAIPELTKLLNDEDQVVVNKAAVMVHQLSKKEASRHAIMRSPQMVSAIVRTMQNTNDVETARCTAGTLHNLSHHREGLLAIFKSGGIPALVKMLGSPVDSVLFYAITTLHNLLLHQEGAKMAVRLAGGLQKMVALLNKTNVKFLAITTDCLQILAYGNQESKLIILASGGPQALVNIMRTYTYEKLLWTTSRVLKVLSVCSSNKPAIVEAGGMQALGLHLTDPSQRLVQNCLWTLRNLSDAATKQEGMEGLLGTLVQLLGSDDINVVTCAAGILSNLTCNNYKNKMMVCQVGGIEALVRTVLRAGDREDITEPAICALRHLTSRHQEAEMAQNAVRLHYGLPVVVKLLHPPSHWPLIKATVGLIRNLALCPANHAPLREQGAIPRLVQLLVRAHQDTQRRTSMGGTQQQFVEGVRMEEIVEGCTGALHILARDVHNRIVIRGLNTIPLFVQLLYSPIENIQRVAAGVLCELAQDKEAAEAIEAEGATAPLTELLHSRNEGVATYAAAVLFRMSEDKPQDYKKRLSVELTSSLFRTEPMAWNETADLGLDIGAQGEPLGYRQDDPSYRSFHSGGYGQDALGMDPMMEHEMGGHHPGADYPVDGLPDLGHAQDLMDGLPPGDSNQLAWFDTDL

[3] = biological target: T2, full-length beta-Catenin (Uniprot ID P35222) (Homo sapiens, UniProt P35222); test: Fluorescence polarization IC50 (beta-catenin / 5FAM-TCF4 10-53 competition); format: binding; conditions: read-out: beta-Catenin FP IC50
T2 construct: 10 nM full-length beta-Catenin (Uniprot ID P35222)
T2 sequence (P35222 1-781): T1 sequence (P35222 1-781)

[4] = Solubility in PBS; format: physicochemical
Outline: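 HPLC quantitation of peptide remaining in the PBS supernatant after ultracentrifugation, referenced to a 50 μM solution in DMSO.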

[5] = system: TCF/LEF luciferase Reporter in DLD1 cells; test: TCF reporter assay (DLD1 TCF/LEF luciferase reporter, Bright-Glo); format: cell-based; conditions: for DLD1 TCF c2 BrightGlo % Inhibition: replicates
Outline: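 DLD1 cells stably carrying a TCF/LEF luciferase reporter were plated at 5000 cells/well in RPMI + 4% FBS and treated overnight with a 1:2 compound dilution series. Bright-Glo luminescence read on day 3; viability by CellTiter-Glo. Absolute IC50 determined.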

[6] = read-out: DLD1 4% Abs IC50, DLD1 4%
[7] = absolute IC50, read-out: NanoBRET Abs IC50
[8] = absolute IC50, read-out: DLD1 reporter assay Abs IC50
[9] = first dose = 20 uM (plate map), 20 µM
[10] = third dose = 5 uM (plate map), 5 µM

| Compound | chromatographic logD [1] | IC50 ([2]; read-out: NanoBRET Abs IC50) | IC50 ([2]; read-out: NanoBRET IC50) | IC50 [3] | Solubility ([4]; Solubility (uM)) | IC50 [5, 6] | IC50 [2, 7] | Solubility [4] | IC50 [5, 8] | DLD1 TCF c2 BrightGlo % Inhibition [5, 9] | DLD1 TCF c2 BrightGlo % Inhibition ([5]; 0.625 µM) | DLD1 TCF c2 BrightGlo % Inhibition ([5]; 1.25 µM) | DLD1 TCF c2 BrightGlo % Inhibition ([5]; 2.5 µM) | DLD1 TCF c2 BrightGlo % Inhibition ([5]; 10 µM) | DLD1 TCF c2 BrightGlo % Inhibition [5, 10] |
| --- | --- | --- | --- | --- | --- | --- | --- | --- | --- | --- | --- | --- | --- | --- | --- |
| CC(=O)N1CCC[C@]12CC=CCCCC1(CCCC=CCCCOC(=O)N3CC[C@@](C(=O)N[C@@H](Cc4ccsc4)C(=O)N[C@@H](Cc4csc5ccccc45)C(=O)N[C@H](C(N)=O)[C@@H](C)O)(C3)NC(=O)[C@H](CC(N)=O)NC(=O)[C@H](Cc3ccccc3)NC(=O)[C@H](C)NC(=O)[C@H](C)NC(=O)[C@H](CC(=O)O)NC(=O)[C@H](CC(=O)O)NC1=O)NC(=O)[C@H](CC(C)(C)C)NC(=O)[C@H](CC(=O)O)NC2=O (stereo partly drawn) [I-814, Ac-PL3-Asp-Npg-B5-Asp-Asp-Ala-Ala-Phe-Asn-PyrS2-3Thi-BztA-Thr-NH2] | 2.1 | 18.9 µM | 12.7 µM | 0.007 µM | 47 µM (≈ 88.9 µg/mL) | 16.5 µM |  |  |  |  |  |  |  |  |  |
| CC(=O)N1CCC[C@]12CC=CCCCC1(CCCC=CCCCOC(=O)N3CC[C@@](C(=O)N[C@@H](Cc4ccccc4Cl)C(=O)N[C@@H](Cc4csc5ccccc45)C(=O)N[C@@H](CO)C(N)=O)(C3)NC(=O)[C@H]([C@@H](C)O)NC(=O)[C@H](Cc3ccccc3)NC(=O)[C@H](C)NC(=O)[C@H](C)NC(=O)[C@H](CC(=O)O)NC(=O)[C@H](CC(=O)O)NC1=O)NC(=O)[C@H](CC(C)(C)C)NC(=O)[C@H](CC(=O)O)NC2=O (stereo partly drawn) [I-1015, Ac-PL3-Asp-Npg-B5-Asp-Asp-Ala-Ala-Phe-Thr-PyrS2-2C1F-BztA-Ser-NH2] | 2.27 |  |  | 0.005 µM | 47 µM (≈ 88.9 µg/mL) | 5.7 µM | 8.9 µM |  | 9 µM |  |  |  |  |  |  |
| CC(=O)N1CCC[C@]12CC=CCCCC1(CCCC=CCCCOC(=O)N3CC[C@@](C(=O)N[C@@H](Cc4ccsc4)C(=O)N[C@@H](Cc4csc5ccccc45)C(=O)N[C@@H](CCC(N)=O)C(N)=O)(C3)NC(=O)[C@H](CCO)NC(=O)[C@H](Cc3ccccc3)NC(=O)[C@H](C)NC(=O)[C@H](C)NC(=O)[C@H](CC(=O)O)NC(=O)[C@H](CC(=O)O)NC1=O)NC(=O)[C@H](CC(C)(C)C)NC(=O)[C@H](CC(=O)O)NC2=O (stereo partly drawn) [I-803, Ac-PL3-Asp-Npg-B5-Asp-Asp-Ala-Ala-Phe-Hse-PyrS2-3Thi-BztA-Gln-NH2] | 2.03 | 9.6 µM | 9 µM | 0.005 µM | 40 µM (≈ 76.2 µg/mL) | 9 µM |  |  |  |  |  |  |  |  |  |
| CC(=O)N1CCC[C@]12CC=CCCCC1(CCCC=CCCCOC(=O)N3CC[C@@](C(=O)N[C@@H](Cc4ccccc4)C(=O)N[C@@H](Cc4csc5ccccc45)C(=O)N[C@@H](CCC(N)=O)C(N)=O)(C3)NC(=O)[C@H](Cc3ccccc3)NC(=O)[C@H](Cc3ccccc3)NC(=O)[C@H](C)NC(=O)[C@H](C)NC(=O)[C@H](CN(CC(=O)O)CC(F)(F)F)NC(=O)[C@H](CC(=O)O)NC1=O)NC(=O)[C@H](CC(C)(C)C)NC(=O)[C@H](CC(=O)O)NC2=O (stereo partly drawn) [I-988, Ac-PL3-Asp-Npg-B5-Asp-TfeGA-Ala-Ala-Phe-Phe-PyrS2-Phe-BztA-Gln-NH2] | 2.35 |  |  | 0.005 µM | 11 µM (≈ 22.6 µg/mL) |  | 13.9 µM |  | 5.2 µM | 78.1% and 81.3% and 81.9% | 11.0% and 10.7% and 15.5% | 5.7% and 22.3% and 21.2% | 13.3% and 28.8% and 33.4% | 61.5% and 72.0% and 76.2% | 32.0% and 57.8% and 62.0% |
| CC(=O)N1CCC[C@]12CC=CCCCC1(CCCC=CCCCCCC[C@@](C)(C(=O)N[C@@H](Cc3ccccc3Cl)C(=O)N[C@@H](Cc3csc4ccccc34)C(=O)N[C@@H](CCC(N)=O)C(N)=O)NC(=O)[C@H](CCO)NC(=O)[C@H](Cc3ccccc3)NC(=O)[C@H](C)NC(=O)[C@H](C)NC(=O)[C@H](CN(CC(=O)O)CC(F)(F)F)NC(=O)[C@H](CC(=O)O)NC1=O)NC(=O)[C@H](CC(C)(C)C)NC(=O)[C@H](CC(=O)O)NC2=O (stereo partly drawn) [I-996, Ac-PL3-Asp-Npg-B5-Asp-TfeGA-Ala-Ala-Phe-Hse-S8-2C1F-BztA-Gln-NH2] | 2.84 |  |  | 0.021 µM | 48 µM (≈ 96.1 µg/mL) | 3.6 µM | 11.3 µM |  | 10.8 µM |  |  |  |  |  |  |

The next lines start with results.

| chromatographic logD [1] | IC50 ([2]; read-out: NanoBRET Abs IC50) | IC50 ([2]; read-out: NanoBRET IC50) | IC50 [3] | Solubility ([4]; Solubility (uM)) | IC50 [5, 6] | IC50 [2, 7] | Solubility [4] | IC50 [5, 8] | Compound | DLD1 TCF c2 BrightGlo % Inhibition [5, 9] | DLD1 TCF c2 BrightGlo % Inhibition ([5]; 0.625 µM) | DLD1 TCF c2 BrightGlo % Inhibition ([5]; 1.25 µM) | DLD1 TCF c2 BrightGlo % Inhibition ([5]; 2.5 µM) | DLD1 TCF c2 BrightGlo % Inhibition ([5]; 10 µM) | DLD1 TCF c2 BrightGlo % Inhibition [5, 10] |
| --- | --- | --- | --- | --- | --- | --- | --- | --- | --- | --- | --- | --- | --- | --- | --- |
| 2.38 |  |  | 0.008 µM |  |  | 21.4 µM | 10 µM (≈ 18.9 µg/mL) | 21.4 µM | CC(=O)N1CCC[C@]12CC=CCCCC1(CCCC=CCCCOC(=O)N3CC[C@@](C(=O)N[C@@H](Cc4ccccc4Cl)C(=O)N[C@@H](Cc4csc5ccccc45)C(=O)N[C@@H](CO)C(N)=O)(C3)NC(=O)[C@H]([C@@H](C)O)NC(=O)[C@H](Cc3ccccc3)NC(=O)[C@H](C)NC(=O)[C@H](C)NC(=O)[C@H](CC(N)=O)NC(=O)[C@H](CC(=O)O)NC1=O)NC(=O)[C@H](CC(C)(C)C)NC(=O)[C@H](CC(=O)O)NC2=O (stereo partly drawn) [I-1016, Ac-PL3-Asp-Npg-B5-Asp-Asn-Ala-Ala-Phe-Thr-PyrS2-2ClF-BztA-Ser-NH2] |  |  |  |  |  |  |
| 2.63 |  |  | 0.021 µM | 28 µM (≈ 53.7 µg/mL) |  | 10.2 µM |  | > 20 µM | CC(=O)N1CCC[C@]12CC=CCCCC1(CCCC=CCCCOC(=O)N3CC[C@@](C(=O)N[C@@H](Cc4ccccc4Cl)C(=O)N[C@@H](Cc4csc5ccccc45)C(=O)N[C@@H](C(N)=O)[C@H](C)O)(C3)NC(=O)[C@H](CC(C)C)NC(=O)[C@H](Cc3ccccc3)NC(=O)[C@H](C)NC(=O)[C@H](C)NC(=O)[C@H](CC(=O)O)NC(=O)[C@H](CC(=O)O)NC1=O)NC(=O)[C@H](CC(C)(C)C)NC(=O)[C@H](CC(=O)O)NC2=O (stereo partly drawn) [I-1035, Ac-PL3-Asp-Npg-B5-Asp-Asp-Ala-Ala-Phe-Leu-PyrS2-2C1F-BztA-dThr-NH2] |  |  |  |  |  |  |
| 2.71 |  |  | 0.027 µM | 12 µM (≈ 23.4 µg/mL) | 4 µM | 9.5 µM |  | 11.9 µM | CC(=O)N1CCC[C@]12CC=CCCCC1(CCCC=CCCCOC(=O)N3CC[C@@](C(=O)N[C@@H](Cc4ccccc4Cl)C(=O)N[C@@H](Cc4csc5ccccc45)C(=O)N[C@@H](C(N)=O)[C@H](C)O)(C3)NC(=O)[C@H](Cc3ccccc3)NC(=O)[C@H](Cc3ccccc3)NC(=O)[C@H](C)NC(=O)[C@H](C)NC(=O)[C@H](CC(=O)O)NC(=O)[C@H](CC(=O)O)NC1=O)NC(=O)[C@H](CC(C)(C)C)NC(=O)[C@H](CC(=O)O)NC2=O (stereo partly drawn) [I-1034, Ac-PL3-Asp-Npg-B5-Asp-Asp-Ala-Ala-Phe-Phe-PyrS2-2C1F-BztA-dThr-NH2] |  |  |  |  |  |  |
| 2.4 |  |  | 0.005 µM | 43 µM (≈ 80.7 µg/mL) | 10.6 µM | 16.7 µM |  | 10 µM | CC(=O)N1CCC[C@]12CC=CCCCC1(CCCC=CCCCOC(=O)N3CC[C@@](C(=O)N[C@@H](Cc4ccccc4Cl)C(=O)N[C@@H](Cc4csc5ccccc45)C(=O)N[C@@H](C)CO)(C3)NC(=O)[C@H](CC(N)=O)NC(=O)[C@H](Cc3ccccc3)NC(=O)[C@H](C)NC(=O)[C@H](C)NC(=O)[C@H](CC(=O)O)NC(=O)[C@H](CC(=O)O)NC1=O)NC(=O)[C@H](CC(C)(C)C)NC(=O)[C@H](CC(=O)O)NC2=O (stereo partly drawn) [I-1081, Ac-PL3-Asp-Npg-B5-Asp-Asp-Ala-Ala-Phe-Asn-PyrS2-2C1F-BztA-Alao1] | 67.2% and 69.3% and 72.3% | 9.2% and 7.1% and 11.5% | 0.8% and 2.4% and 5.4% | 4.5% and 7.9% and 15.2% | 45.6% and 49.8% and 55.3% | 17.5% and 23.8% and 31.0% |
